Results published in US10597719B2, “Detection kit and simple method for detecting target nucleic acids” (National University Corporation Gunma University, priority 2015, dated 2020).
Where two headings read alike, the source gives them in different places.

How the values were obtained:
target G4 = experiment: Affinity of dyes to the target G4, overall comparison from Table 1; format: binding, human; conditions: according to Table 1
Description: (§1) Each of the eight kinds of oligonucleotides (22AG, 26Tel, 27Myc, 22Kit, 20Src, 18Ras, ssDNA, and dsDNA) was dissolved in the buffer TRS50K, PBS150K, PBS140KM, or PBS153NM at a concentration of 21 μM, and denatured by heating at 95° C. (or at 40° C. for 18Ras) for 0.5 minute using a thermal cycler, followed by cooling the resulting solution to 25° C. at a rate of 0.5° C./minute to allow refolding. Each solution was diluted to an appropriate oligonucleotide concentration, and its aliquots (50 μL each) were incubated at 25° C. for 30 minutes, followed by mixing each aliquot with 20 μL of a solution of a dye (ThT, ThT-DB, or ThT-HE; 10.5 μM) in the buffer TRS50K, PBS150K, PBS140KM, or PBS153NM. These mixtures were incubated at 25° C. for 30 minutes. An emission spectrum of each dye was obtained by excitation at 415 nm and monitoring of fluorescence between 450 nm and 600 nm.
(§2) FIGS. 3-4 to 3-6 show relative fluorescence intensities as the peaks of the emitted light at 485 nm (ThT and ThT-HE) or 500 nm (ThT-DB) with respect to the intensity of the dye that interacted with dsDNA, which was taken as 1. The X-axis represents the oligonucleotide concentration.

22AG = experiment: Fluorescence titration, binding of dye to 22AG; set-up: species or system human
Description: (§3) The following six kinds of G4-forming human-derived oligonucleotides were used:
(§4) telomere regions (22AG and 26Tel);
as §1, §2

26Tel = experiment: Fluorescence titration, binding of dye to 26Tel; set-up: species or system human
Description: as §3, §4, §1, §2

27Myc = experiment: Fluorescence titration, binding of dye to 27Myc; set-up: species or system human; conditions: for Kd: read-out: Kd 27Mye
Description: as §3
the nuclease-sensitive element region of the c-Myc P1 promoter (27Myc);
as §1, §2

18Ras = experiment: Fluorescence titration, binding of dye to 18Ras; set-up: species or system human
Description: as §3
the 5′-untranslated region of a human NRAS proto-oncogene transcript (18Ras).
as §1, §2

ssDNA = experiment: Fluorescence titration, binding of dye to ssDNA standard; conditions: n.d. cells
Description: (§5) Besides these sequences, the following two kinds of oligonucleotides were used as standards:
(§6) The ssDNA was used as a single-stranded DNA, and the cDNA was used as a double-stranded DNA (dsDNA) by mixing with the ssDNA at a ratio of 1:1.
as §1, §2

22Kit = experiment: Fluorescence titration, binding of dye to 22Kit; set-up: species or system human
Description: as §3
the 87-nucleotide upstream region of the transcription initiation site of a proto-oncogene encoding tyrosine kinase (22Kit);
as §1, §2

dsDNA = experiment: Fluorescence titration, binding of dye to dsDNA standard; conditions: for Kd: n.d. cells; for emission of fluorescence in the presence of dsDNA: dye 3 μM in PBS153NM, dsDNA 0-15 μM (FIG. 2)
Description: as §5, §6, §1, §2

20Src = experiment: Fluorescence titration, binding of dye to 20Src; set-up: species or system human; conditions: n.d. cells, read-out: Kd 20Sre
Description: as §3
a proto-oncogene encoding a nonreceptor tyrosine kinase (20Src); and
as §1, §2

Kd (22AG; buffer PBS150K) [µM]	Kd (22AG; buffer PBS153NM, n.d. cells) [µM]	Kd (26Tel; buffer PBS150K) [µM]	Kd (26Tel; buffer PBS153NM, n.d. cells) [µM]	specificity to guanine quadruplex (27Myc; 27Myc versus dsDNA, PBS153NM (FIG. 2))	Kd (27Myc; buffer PBS150K) [µM]	Kd (27Myc; buffer PBS153NM) [µM]	Kd (18Ras; buffer PBS150K) [µM]	Kd (18Ras; buffer PBS153NM) [µM]	Kd (ssDNA; buffer PBS150K) [µM]	Kd (ssDNA; buffer PBS153NM) [µM]	Kd (22Kit; buffer PBS150K) [µM]	Kd (22Kit; buffer PBS153NM) [µM]	Kd (dsDNA; buffer PBS150K) [µM]	Kd (dsDNA; buffer PBS153NM) [µM]	Kd (20Src; buffer PBS150K) [µM]	Kd (20Src; buffer PBS153NM) [µM]	Kd (26Tel; buffer PBS153NM) [µM]	SMILES	affinity to the target G4 compared with ThT (target G4)	emission of fluorescence in the presence of dsDNA (dsDNA)
17.6 ± 3.6	> 40	10.6 ± 2.9	> 40	high specificity to guanine quadruplex	23.9 ± 1.4	13.7 ± 1.4	20.9 ± 2.8	28.5 ± 9.7	> 40	> 40	40 ± 9	12.3 ± 1.8	> 40	> 40	> 40	> 40		Cc1ccc2c(c1)sc(-c1ccc(N(C)C)cc1)[n+]2CCO [ThT-HE]	generally lower than affinity of ThT	hardly show fluorescence
7.3 ± 0.3	> 40	5 ± 0.8			8.7 ± 1	7.2 ± 0.6	10.3 ± 3	16 ± 4.2	> 40	> 40	12.3 ± 1.8	7.2 ± 0.9	> 40	> 40	> 40	> 40	25.3 ± 1.5	Cc1ccc2c(c1)sc(-c1ccc(N(C)C)cc1)[n+]2C.[Cl-] [ThT, thioflavin T, reference compound]		considerable level of emission of fluorescence
